Results from ChEMBL document CHEMBL1201861, “Genomics of Drug Sensitity in Cancer screening data, Wellcome Trust Sanger Institute”.
pIC50: −log10 of the molar value.

Assays:
Assay in all cases: cells
Assay type in all cases: functional, cell-based, Homo sapiens
COLO-741 = settings: Homo sapiens, COLO-741
Description: SANGER: Inhibition of human COLO-741 cell growth in a cell viability assay.

Ca-Ski = settings: Homo sapiens, Ca-Ski;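 note: cell viability assay measuring inhibition of Ca-Ski cell growth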
Description: SANGER: Inhibition of human Ca-Ski cell growth in a cell viability assay.

Detroit 562 = settings: Homo sapiens, Detroit 562;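 note: growth inhibition of human Detroit 562 cells, read out by a cell viability assay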
Description: SANGER: Inhibition of human Detroit562 cell growth in a cell viability assay.

DoTc2-4510 = settings: Homo sapiens, DoTc2-4510
G-361 = settings: Homo sapiens, G-361
GAMG = settings: Homo sapiens, GAMG;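 note: cell growth inhibition measured by a viability assay in the GAMG human cell line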
Description: SANGER: Inhibition of human GAMG cell growth in a cell viability assay.

HCC70 = settings: Homo sapiens, HCC70;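 note: cell viability assay measuring how strongly the compound suppresses proliferation of HCC70 cells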
Description: SANGER: Inhibition of human HCC70 cell growth in a cell viability assay.

HCT-15 = settings: Homo sapiens, HCT-15;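 note: cell viability readout, IC50 reflecting suppression of HCT-15 cell growth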
Description: SANGER: Inhibition of human HCT-15 cell growth in a cell viability assay.

HPAF-II = settings: Homo sapiens, HPAF-II;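 note: growth inhibition of HPAF-II cells, read out with a cell viability assay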
Description: SANGER: Inhibition of human HPAF-II cell growth in a cell viability assay.

HSC-2 = settings: Homo sapiens, HSC-2;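 note: growth inhibition of human HSC-2 cells, read out by a cell viability assay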
Description: SANGER: Inhibition of human HSC-2 cell growth in a cell viability assay.

KYSE-140 = settings: Homo sapiens, KYSE-140;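 note: cell viability assay measuring growth inhibition in human KYSE-140 cells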
Description: SANGER: Inhibition of human KYSE-140 cell growth in a cell viability assay.

LN-405 = settings: Homo sapiens, LN-405
Description: SANGER: Inhibition of human LN-405 cell growth in a cell viability assay.

MDA-MB-415 = settings: Homo sapiens, MDA-MB-415
MFE-280 = settings: Homo sapiens, MFE-280;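 note: growth inhibition of MFE-280 cells, determined with a cell viability readout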
Description: SANGER: Inhibition of human MFE-280 cell growth in a cell viability assay.

MIA PaCa-2 = settings: Homo sapiens, MIA PaCa-2;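 note: growth inhibition of MIA PaCa-2 cells, read out with a cell viability assay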
Description: SANGER: Inhibition of human MIA-PaCa-2 cell growth in a cell viability assay.

MeWo = settings: Homo sapiens, MeWo;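 note: growth inhibition of MeWo cells, determined by a cell viability readout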
Description: SANGER: Inhibition of human Mewo cell growth in a cell viability assay.

NCI-H2170 = settings: Homo sapiens, NCI-H2170;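 note: cell viability assay measuring growth inhibition of human NCI-H2170 cancer cells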
Description: SANGER: Inhibition of human NCI-H2170 cell growth in a cell viability assay.

NCI-H2228 = settings: Homo sapiens, NCI-H2228;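 note: growth inhibition of human NCI-H2228 cells, read out by a cell viability assay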
Description: SANGER: Inhibition of human NCI-H2228 cell growth in a cell viability assay.

NCI-H520 = settings: Homo sapiens, NCI-H520;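 note: growth inhibition of NCI-H520 cells, measured by a cell viability assay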
Description: SANGER: Inhibition of human NCI-H520 cell growth in a cell viability assay.

NCI-H596 = settings: Homo sapiens, NCI-H596;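 note: growth inhibition of NCI-H596 cells, read out with a cell viability assay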
Description: SANGER: Inhibition of human NCI-H596 cell growth in a cell viability assay.

NCI-H650 = settings: Homo sapiens, NCI-H650;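 note: growth inhibition of NCI-H650 cells, read out by a viability assay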
Description: SANGER: Inhibition of human NCI-H650 cell growth in a cell viability assay.

SK-MEL-28 = settings: Homo sapiens, SK-MEL-28;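 note: growth inhibition of human SK-MEL-28 cells, read out with a cell viability assay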
Description: SANGER: Inhibition of human SK-MEL-28 cell growth in a cell viability assay.

SK-MES-1 = settings: Homo sapiens, SK-MES-1;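 note: growth inhibition of human SK-MES-1 cells, read out with a cell viability assay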
Description: SANGER: Inhibition of human SK-MES-1 cell growth in a cell viability assay.

SW1573 = settings: Homo sapiens, SW1573;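 note: growth inhibition of SW1573 cells, read out with a cell viability assay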
Description: SANGER: Inhibition of human SW1573 cell growth in a cell viability assay.

SW1783 = settings: Homo sapiens, SW1783;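 note: cell growth inhibition measured with a viability assay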
Description: SANGER: Inhibition of human SW1783 cell growth in a cell viability assay.

SW626 = settings: Homo sapiens, SW626;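 note: growth inhibition of SW626 cells, measured with a cell viability assay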
Description: SANGER: Inhibition of human SW626 cell growth in a cell viability assay.

T84 = settings: Homo sapiens, T84;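 note: growth inhibition measured with a cell viability readout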
Description: SANGER: Inhibition of human T84 cell growth in a cell viability assay.

647-V = settings: Homo sapiens, 647-V;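 note: growth inhibition of 647-V cells, read out with a cell viability assay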
Description: SANGER: Inhibition of human 647-V cell growth in a cell viability assay.

786-0 = settings: Homo sapiens
Description: SANGER: Inhibition of human 786-0 cell growth in a cell viability assay.

8305C = settings: Homo sapiens, 8305C
Description: SANGER: Inhibition of human 8305C cell growth in a cell viability assay.

A549 = settings: Homo sapiens, A549;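 note: growth inhibition of A549 cells, read out with a cell viability assay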
Description: SANGER: Inhibition of human A549 cell growth in a cell viability assay.

TYK-nu = settings: Homo sapiens, TYK-nu;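 note: growth inhibition of human TYK-nu cells, read out by a cell viability assay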
Description: SANGER: Inhibition of human TYK-nu cell growth in a cell viability assay.

UMC-11 = settings: Homo sapiens, UMC-11;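 note: growth inhibition of UMC-11 cells, read out with a cell viability assay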
Description: SANGER: Inhibition of human UMC-11 cell growth in a cell viability assay.

VMRC-RCZ = settings: Homo sapiens, VMRC-RCZ;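 note: growth inhibition measured with a cell viability assay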
Description: SANGER: Inhibition of human VMRC-RCZ cell growth in a cell viability assay.

WM-115 = settings: Homo sapiens, WM-115
Description: SANGER: Inhibition of human WM-115 cell growth in a cell viability assay.

CAPAN-1 = settings: Homo sapiens, CAPAN-1;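 note: growth suppression of CAPAN-1 cells, read out by a cell viability assay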
Description: SANGER: Inhibition of human CAPAN-1 cell growth in a cell viability assay.

CHL-1 = settings: Homo sapiens, CHL-1;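 note: cell growth inhibition, read out with a cell viability assay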
Description: SANGER: Inhibition of human CHL-1 cell growth in a cell viability assay.

COLO-679 = settings: Homo sapiens, COLO-679
Description: SANGER: Inhibition of human COLO-679 cell growth in a cell viability assay.

SMILES	pIC50 (COLO-741)	pIC50 (Ca-Ski)	pIC50 (Detroit 562)	pIC50 (DoTc2-4510)	pIC50 (G-361)	pIC50 (GAMG)	pIC50 (HCC70)	pIC50 (HCT-15)	pIC50 (HPAF-II)	pIC50 (HSC-2)	pIC50 (KYSE-140)	pIC50 (LN-405)	pIC50 (MDA-MB-415)	pIC50 (MFE-280)	pIC50 (MIA PaCa-2)	pIC50 (MeWo)	pIC50 (NCI-H2170)	pIC50 (NCI-H2228)	pIC50 (NCI-H520)	pIC50 (NCI-H596)	further results
CC(C)CCN1c2nc(Nc3cc(F)c(O)c(F)c3)ncc2N(C)C(=O)C1C (configuration not stated)	< 5.30	5.46	< 5.30	< 5.30	5.67	6.13	< 5.30	< 5.30	< 5.30	< 5.30	< 5.30	< 5.30	< 5.30	< 5.30	5.36	< 5.30	< 5.30	< 5.30	< 5.30	< 5.30	pIC50 (NCI-H650): < 5.30; pIC50 (SK-MEL-28): < 5.30; pIC50 (SK-MES-1): 5.43; pIC50 (SW1573): < 5.30; pIC50 (SW1783): < 5.30; pIC50 (SW626): 5.31; pIC50 (T84): < 5.30; pIC50 (647-V): < 5.30; pIC50 (786-0): < 5.30; pIC50 (8305C): 5.41; pIC50 (A549): 5.88; pIC50 (TYK-nu): 5.45; pIC50 (UMC-11): < 5.30; pIC50 (VMRC-RCZ): < 5.30; pIC50 (WM-115): < 5.30; pIC50 (CAPAN-1): < 5.30; pIC50 (CHL-1): 5.71; pIC50 (COLO-679): < 5.30
Nc1cccc2c1CN(C1CCC(=O)NC1=O)C2=O (configuration not stated) [LENALIDOMIDE]	< 5.30	< 5.30	< 5.30	< 5.30	< 5.30	< 5.30	< 5.30	< 5.30	< 5.30	< 5.30	< 5.30	< 5.30	< 5.30	< 5.30	< 5.30	< 5.30	< 5.30	< 5.30	< 5.30	< 5.30	pIC50 (NCI-H650): < 5.30; pIC50 (SK-MEL-28): < 5.30; pIC50 (SK-MES-1): < 5.30; pIC50 (SW1573): < 5.30; pIC50 (SW1783): < 5.30; pIC50 (SW626): < 5.30; pIC50 (T84): < 5.30; pIC50 (647-V): < 5.30; pIC50 (786-0): < 5.30; pIC50 (8305C): < 5.30; pIC50 (A549): < 5.30; pIC50 (TYK-nu): < 5.30; pIC50 (UMC-11): < 5.30; pIC50 (VMRC-RCZ): < 5.30; pIC50 (WM-115): < 5.30; pIC50 (CAPAN-1): < 5.30; pIC50 (CHL-1): < 5.30; pIC50 (COLO-679): < 5.30
Cc1cn(-c2cc(NC(=O)c3ccc(C)c(Nc4nccc(-c5cccnc5)n4)c3)cc(C(F)(F)F)c2)cn1 [NILOTINIB]	< 5.70	< 5.70	< 5.70	< 5.70	< 5.70	< 5.70	< 5.70	< 5.70	< 5.70	< 5.70	< 5.70	< 5.70	< 5.70	< 5.70	< 5.70	< 5.70	< 5.70	< 5.70	< 5.70	< 5.70	pIC50 (NCI-H650): < 5.70; pIC50 (SK-MEL-28): < 5.70; pIC50 (SK-MES-1): < 5.70; pIC50 (SW1573): < 5.70; pIC50 (SW1783): < 5.70; pIC50 (SW626): < 5.70; pIC50 (T84): < 5.70; pIC50 (647-V): < 5.70; pIC50 (786-0): < 5.70; pIC50 (8305C): < 5.70; pIC50 (A549): < 5.70; pIC50 (TYK-nu): < 5.70; pIC50 (UMC-11): < 5.70; pIC50 (VMRC-RCZ): < 5.70; pIC50 (WM-115): < 5.70; pIC50 (CAPAN-1): < 5.70; pIC50 (CHL-1): < 5.70; pIC50 (COLO-679): < 5.70
CO[C@H]1C[C@@H]2CC[C@@H](C)[C@@](O)(O2)C(=O)C(=O)N2CCCC[C@H]2C(=O)O[C@H]([C@H](C)C[C@@H]2CC[C@@H](OC(=O)C(C)(CO)CO)[C@H](OC)C2)CC(=O)[C@H](C)/C=C(\C)[C@@H](O)[C@@H](OC)C(=O)[C@H](C)C[C@H](C)/C=C/C=C/C=C/1C [TEMSIROLIMUS]	< 6.70	< 6.70	< 6.70	< 6.70	6.84	8.42	6.80	< 6.70	< 6.70	6.70	6.81	6.87	7.44	< 6.70	< 6.70	7.31	< 6.70	< 6.70	< 6.70	< 6.70	pIC50 (NCI-H650): < 6.70; pIC50 (SK-MEL-28): 6.88; pIC50 (SK-MES-1): < 6.70; pIC50 (SW1573): < 6.70; pIC50 (SW1783): < 6.70; pIC50 (SW626): < 6.70; pIC50 (T84): < 6.70; pIC50 (647-V): < 6.70; pIC50 (786-0): 7.29; pIC50 (8305C): < 6.70; pIC50 (A549): 7.69; pIC50 (TYK-nu): 9.11; pIC50 (UMC-11): 7.05; pIC50 (VMRC-RCZ): < 6.70; pIC50 (WM-115): < 6.70; pIC50 (CAPAN-1): < 6.70; pIC50 (CHL-1): 8.23; pIC50 (COLO-679): < 6.70
